pIC50: −log10 of the molar value. Read-outs that look alike come from different tables or passages of the source.

This experiment concerns the target BTK enzyme (recombinant full-length BTK, hBTK) (Homo sapiens (Human), UniProt Q06187). The experiment is described as follows: Btk enzyme activity assay, LANCE TR-FRET.
Where [1] appears, read: read-out: BTK binding IC50, 50 pM hBTK, 2 μM biotin-A5-peptide, 25 μM ATP, 60 minute compound & enzyme incubation.

Sequence of BTK enzyme (recombinant full-length BTK, hBTK) (Q06187 whole entry): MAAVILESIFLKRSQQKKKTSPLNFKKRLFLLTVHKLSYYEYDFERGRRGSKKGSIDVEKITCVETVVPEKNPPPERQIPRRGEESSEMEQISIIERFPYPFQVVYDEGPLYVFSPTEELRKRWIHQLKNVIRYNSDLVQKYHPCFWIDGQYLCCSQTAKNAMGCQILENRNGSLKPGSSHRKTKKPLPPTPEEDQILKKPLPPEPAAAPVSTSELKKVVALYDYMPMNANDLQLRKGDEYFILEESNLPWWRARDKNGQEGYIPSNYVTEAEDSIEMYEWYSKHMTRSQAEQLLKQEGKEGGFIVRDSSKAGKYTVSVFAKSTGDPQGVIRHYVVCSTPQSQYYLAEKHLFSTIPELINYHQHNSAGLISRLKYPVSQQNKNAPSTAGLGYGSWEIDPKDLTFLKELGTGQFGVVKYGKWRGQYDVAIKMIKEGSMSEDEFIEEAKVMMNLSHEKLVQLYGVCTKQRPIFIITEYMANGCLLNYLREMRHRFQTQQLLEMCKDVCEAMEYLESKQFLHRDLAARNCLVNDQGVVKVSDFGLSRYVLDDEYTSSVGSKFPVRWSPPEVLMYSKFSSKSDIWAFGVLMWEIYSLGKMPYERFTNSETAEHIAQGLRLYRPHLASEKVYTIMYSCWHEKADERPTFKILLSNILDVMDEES
Procedure: Also BTK enzymatic activity was determined with the LANCE (Lanthanide Chelate Excite) TR-FRET (Time-resolved fluorescence resonance energy transfer) assay. […] Phosphorylation reactions were allowed to proceed for 120 minutes. […] After 60 minutes incubation with detection reagents, reaction plates were read on a PerkinElmer EnVision plate reader using standard TR-FRET protocol. Briefly, excitation of donor molecules (Eu-chelate:anti-phospho-antibody) with a laser light source at 337 nm produces energy that can be transferred to Dylight-650 acceptor molecules if this donor:acceptor pair is within close proximity. Fluorescence intensity at both 665 nm (acceptor) and 615 nm (donor) are measured and a TR-FRET ratio calculated for each well (acceptor intensity/donor intensity).
Btk Enzyme Activity Assay Method
BTK enzymatic activity was determined with the LANCE (Lanthanide Chelate Excite) TR-FRET (Time-resolved fluorescence resonance energy transfer) assay. […] Phosphorylation reactions were allowed to proceed for 120 minutes. […] After 60 minutes incubation with detection reagents, reaction plates were read on a PerkinElmer EnVision plate reader using standard TR-FRET protocol. Briefly, excitation of donor molecules (Eu-chelate:anti-phospho-antibody) with a laser light source at 337 nm produces energy that can be transferred to Dylight-650 acceptor molecules if this donor:acceptor pair is within close proximity. Fluorescence intensity at both 665 nm (acceptor) and 615 nm (donor) are measured and a TR-FRET ratio calculated for each well (acceptor intensity/donor intensity).

On to `N#CC1(C(=O)N2CCC[C@@H](c3nn(-c4ccc(C(=O)Nc5cc(C(F)(F)F)ccn5)cc4)c4c(N)nccc34)C2)CC1` [Example 27, 4-(7-amino-3-{(3R)-1-[(1-cyanocyclopropyl)carbonyl]piperidin-3-yl}-1H-pyrazolo[3,4-c]pyridin-1-yl)-N-[4-(trifluoromethyl)pyridin-2-yl]benzamide], for which the pIC50 was 8.66.
Turning to `COc1ccnc(NC(=O)c2ccc(-n3nc([C@@H]4CCCN(C(=O)C5(C)COC5)C4)c4ccnc(N)c43)cc2)c1` [Example 28, (R)-4-(7-amino-3-(1-(3-methyloxetane-3-carbonyl)piperidin-3-yl)-1H-pyrazolo[3,4-c]pyridin-1-yl)-N-(4-methoxypyridin-2-yl)benzamide 2,2,2-trifluoroacetate], under setting [1], the negative logarithm of the IC50 (pIC50) is 9.31.
The same measure, in the same setting: with `COc1ccnc(NC(=O)c2ccc(-n3nc([C@@H]4CCCN(C(=O)C(C)(CO)CO)C4)c4ccnc(N)c43)cc2)c1` [Example 29, (R)-4-(7-amino-3-(1-(3-hydroxy-2-(hydroxymethyl)-2-methylpropanoyl)piperidin-3-yl)-1H-pyrazolo[3,4-c]pyridin-1-yl)-N-(4-methoxypyridin-2-yl)benzamide 2,2,2-trifluoroacetate] the figure was 8.80; with `C[C@H]1CC[C@@H](c2nn(-c3ccc(C(=O)Nc4cc(C5CC5)ccn4)cc3)c3c(N)nccc23)CN1C(=O)C1(C)COC1` [Example 30, 4-(7-amino-3-((3R,6S)-6-methyl-1-(3-methyloxetane-3-carbonyl)piperidin-3-yl)-1H-pyrazolo[3,4-c]pyridin-1-yl)-N-(4-cyclopropylpyridin-2-yl)benzamide], 9.01.
Still for that read-out and setting: with `C[C@H]1CC[C@@H](c2nn(-c3ccc(C(=O)Nc4cc(C5CC5)ccn4)cc3)c3c(N)nccc23)CN1C(=O)C1CC1` [Example 31, 4-{7-amino-3-[(3R,6S)-1-(cyclopropylcarbonyl)-6-methylpiperidin-3-yl]-1H-pyrazolo[3,4-c]pyridin-1-yl}-N-(4-cyclopropylpyridin-2-yl)benzamide] the figure was 8.89.
As to `C[C@H](O)C(=O)N1C[C@H](c2nn(-c3ccc(C(=O)Nc4cc(C5CC5)ccn4)cc3)c3c(N)nccc23)CC[C@@H]1C` [Example 32, 4-(7-amino-3-{(3R,6S)-1-[(2S)-2-hydroxypropanoyl]-6-methylpiperidin-3-yl}-1H-pyrazolo[3,4-c]pyridin-1-yl)-N-(4-cyclopropylpyridin-2-yl)benzamide], the pIC50 under setting [1] was 8.80.
On the same count and under the same terms, to `CO[C@@H](C)C(=O)N1C[C@H](c2nn(-c3ccc(C(=O)Nc4cc(C5CC5)ccn4)cc3)c3c(N)nccc23)CC[C@@H]1C` [Example 33, 4-(7-amino-3-{(3R,6S)-1-[(2S)-2-methoxypropanoyl]-6-methylpiperidin-3-yl}-1H-pyrazolo[3,4-c]pyridin-1-yl)-N-(4-cyclopropylpyridin-2-yl)benzamide] belongs 8.70; to `C[C@H]1CC[C@@H](c2nn(-c3ccc(C(=O)Nc4cccc(OC5CC5)c4)cc3)c3c(N)nccc23)CN1C(=O)C1CC1` [Example 34, 4-(7-amino-3-((3R,6S)-1-(cyclopropanecarbonyl)-6-methylpiperidin-3-yl)-1H-pyrazolo[3,4-c]pyridin-1-yl)-N-(3-cyclopropoxyphenyl)benzamide], 9.06; to `C[C@H]1CC[C@@H](c2nn(-c3ccc(C(=O)Nc4cccc(OC5CC5)c4)cc3)c3c(N)nccc23)CN1C(=O)C1(C)COC1` [Example 35, 4-(7-amino-3-((3R,6S)-6-methyl-1-(3-methyloxetane-3-carbonyl)piperidin-3-yl)-1H-pyrazolo[3,4-c]pyridin-1-yl)-N-(3-cyclopropoxyphenyl)benzamide], 9.02.
The same measure, in the same setting: with `C[C@@H](O)C(=O)N1C[C@H](c2nn(-c3ccc(C(=O)Nc4cccc(OC5CC5)c4)cc3)c3c(N)nccc23)CC[C@@H]1C` [Example 36, 4-(7-amino-3-((3R,6S)-1-((R)-2-hydroxypropanoyl)-6-methylpiperidin-3-yl)-1H-pyrazolo[3,4-c]pyridin-1-yl)-N-(3-cyclopropoxyphenyl)benzamide] the figure was 7.52.

In general, pIC50 refers to the IC50 on a negative log10 scale, so that one unit is a factor of ten.
